We go through one compound from ChEMBL document CHEMBL1139929, “Penicillin-bound polyacrylate nanoparticles: restoring the activity of beta-lactam antibiotics against MRSA” (2007).

In experiment [1] the test system is Staphylococcus aureus. Nature of the experiment: Antibacterial activity against Staphylococcus aureus ATCC 25923 after 24 hrs by broth dilution assay. The format is functional. The following applies: ATCC 25923, 24 h. A general note: Dilution methods test growth across graded concentrations, often in twofold steps.
For experiment [2], the system named is Staphylococcus aureus. Nature of the experiment: Antibacterial activity against methicillin-resistant Staphylococcus aureus ATCC 43300 after 24 hrs by broth dilution assay. It is filed as functional. The following applies: ATCC 43300, 24 h.

In brackets after ≈: the same amount, converted by molar mass.

Turning to `CC1(C)S[C@@H]2[C@H](NC(=O)Cc3ccccc3)C(=O)N2[C@H]1C(=O)O` [PENICILLIN G], the values for the MIC in experiment [1] and in experiment [2] were 0.012 µg/mL (≈ 0.0359 µM) and 16 µg/mL (≈ 47.8 µM), respectively.
